Read-outs that look alike come from different tables or passages of the source.
Assays:
HSV-1 = test: Anti-HSV-1 CPE assay in Vero cells; format: cell-based, HSV-1 virus
Cox B3 = test: Anti-Coxsackie B3 CPE inhibitory assay in Vero cells; format: cell-based, Coxsackie viruses (Cox B3 Nancy strain); settings: for IC50: Cox B3, 158TCID50, CPE, Reed and Muench
A/FM/1/47 = test: Anti-influenza A CPE inhibitory assay in MDCK cells; format: cell-based, influenza A/FM/1/47(H1N1); settings: for IC50: CPE, Reed and Muench
B/Jifang/13/97 = test: Anti-influenza B CPE assay; format: cell-based

## Nc1nc2c(ncn2COCCO)c(=O)[nH]1 [ACV, Acyclovir, reference compound]
HSV-1; Human alphaherpesvirus 1, Vero
  IC50: 1.82 µM

## COC(=O)c1cc2c(OC)cc(N)cc2[nH]1 [Compound 1f, Methyl 6-amino-4-methoxy-1H-indole-2-carboxylate]
Cox B3; Vero
  IC50: > 33.7 µM
HSV-1; Human alphaherpesvirus 1, Vero
  IC50: > 33.7 µM
A/FM/1/47; Influenza A virus, MDCK
  IC50: < 52 µM
A/FM/1/47
  IC50: 33.7 µM
B/Jifang/13/97; Influenza B virus
  IC50: > 33.7 µM

## COC(=O)c1cc2c(OCc3ccccc3)cc(NC(C)=O)cc2[nH]1 [Compound 2e, Methyl 6-acetamido-4-(benzyloxy)-1H-indole-2-carboxylate]
Cox B3; Vero
  IC50: > 21.9 µM
HSV-1; Human alphaherpesvirus 1, Vero
  IC50: > 21.9 µM
A/FM/1/47; Influenza A virus, MDCK
  IC50: > 65.7 µM

## COC(=O)c1cc2c(OCc3ccccc3)cc(N)cc2[nH]1 [Compound 2f, Methyl 6-amino-4-(benzyloxy)-1H-indole-2-carboxylate]
Cox B3; Vero
  IC50: 1.59 µM
HSV-1; Human alphaherpesvirus 1, Vero
  IC50: > 2.78 µM
A/FM/1/47; Influenza A virus, MDCK
  IC50: > 25.1 µM

## COC(=O)c1cc2c(OCc3ccc(F)cc3)cc(N)cc2[nH]1 [Compound 3f, Methyl 6-amino-4-(4-fluorobenzyloxy)-1H-indole-2-carboxylate]
Cox B3; Vero
  IC50: 4.55 µM
HSV-1; Human alphaherpesvirus 1, Vero
  IC50: > 7.87 µM
A/FM/1/47; Influenza A virus, MDCK
  IC50: > 70.8 µM

## COC(=O)c1cc2c(OCc3ccc(OC)cc3)cc(N)cc2[nH]1 [Compound 4f, Methyl 6-amino-4-(4-methoxybenzyloxy)-1H-indole-2-carboxylate]
Cox B3; Vero
  IC50: > 7.58 µM
HSV-1; Human alphaherpesvirus 1, Vero
  IC50: > 7.58 µM
A/FM/1/47; Influenza A virus, MDCK
  IC50: > 205 µM

## COC(=O)c1cc2c(OCC3CCCCC3)cc(N)cc2[nH]1 [Compound 5f, Methyl 6-amino-4-(cyclohexylmethoxy)-1H-indole-2-carboxylate]
Cox B3; Vero
  IC50: > 2.71 µM
HSV-1; Human alphaherpesvirus 1, Vero
  IC50: > 8.15 µM
A/FM/1/47; Influenza A virus, MDCK
  IC50: > 8.15 µM

## C=CCOc1cc(N)cc2[nH]c(C(=O)OC)cc12 [Compound 6f, Methyl 4-(allyloxy)-6-amino-1H-indole-2-carboxylate]
Cox B3
  IC50: 30.1 µM
Cox B3; Vero
  IC50: < 50 µM
HSV-1; Human alphaherpesvirus 1, Vero
  IC50: > 30.1 µM
A/FM/1/47; Influenza A virus, MDCK
  IC50: < 52 µM
B/Jifang/13/97; Influenza B virus
  IC50: > 30.1 µM

## COC(=O)c1cc2c(OC3CC3)cc(N)cc2[nH]1 [Compound 7f, Methyl 6-amino-4-cyclopropoxy-1H-indole-2-carboxylate]
Cox B3; Vero
  IC50: 49.4 µM
HSV-1; Human alphaherpesvirus 1, Vero
  IC50: > 85.5 µM
A/FM/1/47; Influenza A virus, MDCK
  IC50: > 85.5 µM

## COC(=O)c1cc2c(OCC(C)C)cc(NC(C)=O)cc2[nH]1 [Compound 8e, Methyl 6-acetamido-4-isobutoxy-1H-indole-2-carboxylate]
Cox B3; Vero
  IC50: > 24.4 µM
HSV-1; Human alphaherpesvirus 1, Vero
  IC50: > 24.4 µM
A/FM/1/47; Influenza A virus, MDCK
  IC50: 8.13 µM
B/Jifang/13/97; Influenza B virus
  IC50: > 8.13 µM

## COC(=O)c1cc2c(OCC(C)C)cc(N)cc2[nH]1 [Compound 8f, Methyl 6-amino-4-isobutoxy-1H-indole-2-carboxylate]
Cox B3; Vero
  IC50: 7.18 µM
HSV-1; Human alphaherpesvirus 1, Vero
  IC50: > 28.3 µM
A/FM/1/47; Influenza A virus, MDCK
  IC50: 9.43 µM
B/Jifang/13/97; Influenza B virus
  IC50: > 9.43 µM

## CCOc1cc(N)cc2[nH]c(C(=O)OC)cc12 [Compound 9f, Methyl 6-amino-4-ethoxy-1H-indole-2-carboxylate]
Cox B3; Vero
  IC50: > 31.7 µM
HSV-1; Human alphaherpesvirus 1, Vero
  IC50: > 31.7 µM
A/FM/1/47; Influenza A virus, MDCK
  IC50: 18.3 µM
B/Jifang/13/97; Influenza B virus
  IC50: > 31.7 µM

## COC(=O)c1cc2c(OC(C)C)cc(N)cc2[nH]1 [Compound 10f, Methyl 6-amino-4-isopropoxy-1H-indole-2-carboxylate]
Cox B3; Vero
  IC50: > 89.6 µM
HSV-1; Human alphaherpesvirus 1, Vero
  IC50: > 89.6 µM
A/FM/1/47; Influenza A virus, MDCK
  IC50: < 52 µM
A/FM/1/47
  IC50: 51.7 µM
B/Jifang/13/97; Influenza B virus
  IC50: > 89.6 µM

## COC(=O)c1cc2c(OC)cccc2[nH]1 [Compound 11e, Methyl 4-methoxy-1H-indole-2-carboxylate]
Cox B3; Vero
  IC50: 108 µM
HSV-1; Human alphaherpesvirus 1, Vero
  IC50: > 108 µM
A/FM/1/47; Influenza A virus, MDCK
  IC50: 62.6 µM
B/Jifang/13/97; Influenza B virus
  IC50: > 108 µM

## COC(=O)c1cc2c(OCc3ccccc3)cc(OC)cc2[nH]1 [Compound 12e, Methyl 4-(benzyloxy)-6-methoxy-1H-indole-2-carboxylate]
Cox B3; Vero
  IC50: > 7.94 µM
HSV-1; Human alphaherpesvirus 1, Vero
  IC50: > 7.94 µM
B/Jifang/13/97; Influenza B virus
  IC50: > 23.8 µM

## COC(=O)c1cc2c(OCc3ccccc3)cccc2[nH]1 [Compound 13e, Methyl 4-(benzyloxy)-1H-indole-2-carboxylate]
Cox B3; Vero
  IC50: > 8.79 µM
HSV-1; Human alphaherpesvirus 1, Vero
  IC50: > 8.79 µM
A/FM/1/47; Influenza A virus, MDCK
  IC50: < 52 µM
A/FM/1/47
  IC50: 26.4 µM
B/Jifang/13/97; Influenza B virus
  IC50: > 26.4 µM

## COC(=O)c1cc2ccc(NC(C)=O)cc2[nH]1 [Compound 14e, Methyl 6-acetamido-1H-indole-2-carboxylate]
Cox B3
  anti-Cox B3 activity (in words): showed anti-Cox B3 activity
Cox B3; Vero
  IC50: 72.8 µM
HSV-1; Human alphaherpesvirus 1, Vero
  IC50: > 287 µM
A/FM/1/47
  anti-influenza A activity (in words): showed anti-influenza A activity
A/FM/1/47; Influenza A virus, MDCK
  IC50: 95.8 µM
B/Jifang/13/97; Influenza B virus
  IC50: > 95.8 µM

## COC(=O)c1cc2ccc(N)cc2[nH]1 [Compound 14f, Methyl 6-amino-1H-indole-2-carboxylate]
Cox B3
  anti-Cox B3 activity (in words): showed anti-Cox B3 activity
Cox B3; Vero
  IC50: 67.5 µM
HSV-1; Human alphaherpesvirus 1, Vero
  IC50: > 117 µM
A/FM/1/47
  anti-influenza A activity (in words): showed anti-influenza A activity
A/FM/1/47; Influenza A virus, MDCK
  IC50: 7.53 µM
B/Jifang/13/97
  antiviral activity against the influenza B strain (in words): displayed antiviral activity
B/Jifang/13/97; Influenza B virus
  IC50: 13 µM

## COC(=O)c1cc2ccc(N(C)C)cc2[nH]1 [Compound 15e, Methyl 6-(dimethylamino)-1H-indole-2-carboxylate]
Cox B3
  anti-Cox B3 activity (in words): showed anti-Cox B3 activity
  IC50: 44.7 µM
Cox B3; Vero
  IC50: < 50 µM
HSV-1
  activity towards HSV-1 (in words): showed activity
HSV-1; Human alphaherpesvirus 1, Vero
  IC50: 102 µM
A/FM/1/47
  anti-influenza A activity (in words): showed anti-influenza A activity
A/FM/1/47; Influenza A virus, MDCK
  IC50: 102 µM
B/Jifang/13/97; Influenza B virus
  IC50: > 102 µM

## COC(=O)c1cc2c(OC)ccc(N)c2[nH]1 [Compound 16f, Methyl 7-amino-4-methoxy-1H-indole-2-carboxylate]
Cox B3; Vero
  IC50: > 33.7 µM
HSV-1; Human alphaherpesvirus 1, Vero
  IC50: > 33.7 µM
A/FM/1/47; Influenza A virus, MDCK
  IC50: > 3.73 µM

## CCOc1ccc(N)c2[nH]c(C(=O)OC)cc12 [Compound 17f, Methyl 7-amino-4-ethoxy-1H-indole-2-carboxylate]
Cox B3; Vero
  IC50: 10.6 µM
HSV-1
  activity towards HSV-1 (in words): showed activity
HSV-1; Human alphaherpesvirus 1, Vero
  IC50: 10.6 µM
A/FM/1/47; Influenza A virus, MDCK
  IC50: > 10.6 µM

## CCCOc1ccc(N)c2[nH]c(C(=O)OC)cc12 [Compound 18f, Methyl 7-amino-4-propoxy-1H-indole-2-carboxylate]
Cox B3
  IC50: 29.9 µM
Cox B3; Vero
  IC50: < 50 µM
HSV-1; Human alphaherpesvirus 1, Vero
  IC50: > 29.9 µM
A/FM/1/47; Influenza A virus, MDCK
  IC50: > 3.31 µM

## CCOC(=O)C1=C[C@@H](OC(CC)CC)[C@H](NC(C)=O)[C@@H](N)C1 [Oseltamivir, oseltamivir, reference compound]
A/FM/1/47; Influenza A virus, MDCK
  IC50: 6.43 µM
B/Jifang/13/97; Influenza B virus
  IC50: 115 µM

## NC(=O)c1ncn([C@@H]2O[C@H](CO)[C@@H](O)[C@H]2O)n1 [RBV, ribavirin, reference compound]
Cox B3; Vero
  IC50: 1060 µM
A/FM/1/47; Influenza A virus, MDCK
  IC50: 2.58 µM
B/Jifang/13/97; Influenza B virus
  IC50: 10.1 µM

## Methyl 6-acetimidamido-4-methoxy-1H-indole-2-carboxylate [Compound 1e]
Cox B3
  IC50: > 254 µM
HSV-1; HSV-1, 100TCID50, CPE, Reed and Muench
  IC50: > 254 µM
A/FM/1/47
  IC50: 254 µM
B/Jifang/13/97
  IC50: 254 µM
  antiviral activity against the influenza B strain (in words): displayed antiviral activity

Source: article PMC4629079 (Acta Pharmaceutica Sinica. B, 2014)
